Experimental data from patent US11130960B2, “Methods for conferring or enhancing herbicide resistance on plants and/or alga with protoporphyrinogen oxidase variants” (FARM HANNONG CO., LTD., priority 2014, dated 2021).

tested on: CyPPO8 variant; test: Growth inhibition of BT3(ΔPPO) E. coli transformed with 98% homology variant, LB solid medium; type: cell-based, Halothece sp. PCC 7418; conditions: 1% agar LB solid medium, 37° C., 14~16 hours, light
Source text: To investigate amino acid sequence homology range of CyPPO2, CyPPO4 and CyPPO8 which maintain herbicide resistance, a part of the amino acid sequence of CyPPO2, CyPPO4 or CyPPO8 protein was replaced by a part of the amino acid sequence of NtPPO (tobacco-derived PPO gene). As a result, the amino acid sequence of the resulting CyPPO2 variant is represented by SEQ ID NO: 12, and its nucleotide sequence thereof is represented by SEQ ID NO: 13. […] Further, the amino acid sequence of the CyPPO4 variant is represented by SEQ ID NO: 14, and its nucleotide sequence thereof is represented by SEQ ID NO: 15. […] Further, the amino acid sequence of the CyPPO8 variant is represented by SEQ ID NO: 16, and its nucleotide sequence thereof is represented by SEQ ID NO: 17.
Herbicide resistance of the amino acid sequence variant of CyPPO2, the amino acid sequence variant of CyPPO4, and the amino acid sequence variant of CyPPO8 was investigated in PPO-deficient BT3 E. coli [BT3(ΔPPO)], and a specific experimental method is similar to that of Example 3. In the same manner as in Example 3, as a negative control, the wild-type PPO (wild-type AtPPO1) of Arabidopsis thaliana was employed as a reference for herbicide-sensitivity. As a positive control, the mutant AtPPO1 which was prepared by amino acid replacement of Y426M and S305L in the wild-type amino acid sequence was employed as a reference for herbicide-resistance.
An autoclave was used under conditions of 121° C. and 15 minutes, and an incubator was used at 37° C. with lighting of 169 μmol m^−2 s^−1 for a culture time of 14˜16 hours. A UV-visible spectrophotometer was used at 600 nm. PCR was performed under conditions of at 94° C. for 4 minutes, and 25 cycles (at 94° C. for 30 seconds, at 56˜60° C. for 30 seconds and at 72° C. for 3 minutes), at 72° C. for 5 minutes and at 4° C. for 5 minutes. Respective herbicides were prepared at a concentration of 200 mM in DMSO, and stored at −20° C. Before use, the herbicides were diluted and added to LB broth medium (containing […]).
Saturated cells were inoculated in 3 ml of LB liquid medium containing chloramphenicol, and then cultured at 37° C., 200 rpm for 5 hours. Density of the cultured cells was measured at 600 nm, and the transformants were diluted with LB liquid medium to have the same absorbance (OD600) per 1 ml thereof (OD600=0.5). Agar was added to LB liquid medium at a concentration of 1%, and then autoclaved. Chloramphenicol (34 μg/ml) and herbicide were added and mixed. Cells diluted equally was diluted at a density of 10^0, 10^−1, 10^−2, 10^−3, 10^−4, and 10^−5. Each 10 μl of the cells was dropped on 1% agar, LB solid medium, and cultured in a 37° C. incubator for 14˜16 hours (light condition: 169 μmol m^−2s^−1).
To prepare BT3(ΔPPO) competent cells, BT3(ΔPPO) strain was added to 5 ml of LB broth containing 50 μg/ml kanamycin and 20 μg/ml hematin, and cultured in a 37° C. shaking incubator for 12 hours in the dark. Thereafter, 5 ml of the culture was added to 100 ml of LB broth containing 20[…] μg/ml hematin, and cultured in a 37° C. shaking incubator in the dark until OD600 reached 0.5. BT3(ΔPPO) competent cells were prepared from the cultured E. coli using CaCl2 according to protocols for preparing competent cells. Next, to transform the BT3(ΔPPO) strain with the respective vectors harboring the CyPPO2 variant, CyPPO4 variant and CyPPO8 variant, 5 μl of the vector was added to 100 μl of BT3(ΔPPO) competent cells, and the mixture was mixed well, allowed to react on ice for 20 minutes, and then left at 42° C. for 40 seconds. After stabilization on ice for 2 minutes, 1 ml of LB broth was added to BT3(ΔPPO), and cultured at 37° C. for 1 hour with shaking. The cells cultured in the medium were collected according to the type of the gene insert, and then spread on LB solid medium containing chloramphenicol (34 μg/ml), and cultured at 37° C. for 12 hours or longer. Thereafter, single colonies thereof were cultured in LB liquid medium. […]

| SMILES | concentration at which growth inhibition was hardly observed |
| --- | --- |
| CS(=O)(=O)NC(=O)c1cc(Oc2ccc(C(F)(F)F)cc2Cl)ccc1[N+](=O)[O-] [Fomesafen] | 25 µM |
| COC(=O)CSc1cc(/N=c2\sc(=O)n3n2CCCC3)c(F)cc1Cl [Fluthiacet-methyl] | 25 µM |
| Cc1nn(-c2cc(NS(C)(=O)=O)c(Cl)cc2Cl)c(=O)n1C(F)F [Sulfentrazone] | 25 µM |
| CCOc1cc(Oc2ccc(C(F)(F)F)cc2Cl)ccc1[N+](=O)[O-] [Oxyfluorfen] | 25 µM |
| CC(C)N(C)S(=O)(=O)NC(=O)c1cc(-n2c(=O)cc(C(F)(F)F)n(C)c2=O)c(F)cc1Cl [Saflufenacil] | 25 µM |
| CC(C)=C1OC(=O)N(c2cc(OC3CCCC3)c(Cl)cc2F)C1=O [Pentoxazone] | 25 µM |
| C#CCN(C)c1c(C#N)cnn1-c1nn2c(c1Cl)CCCC2 [Pyraclonil] | 25 µM |
| C=CCOC(=O)C(C)(C)OC(=O)c1cc(-n2c(=O)cc(C(F)(F)F)n(C)c2=O)ccc1Cl [Butafenacil] | 25 µM |
| COC(=O)CCNC(=O)C(C)Sc1cc(-n2c(=O)cc(C(F)(F)F)n(C)c2=O)c(F)cc1Cl (stereo not shown) [Tiafenacil] | 25 µM |
| C#CCN1C(=O)COc2cc(F)c(N3C(=O)C4=C(CCCC4)C3=O)cc21 [Flumioxazin] | 25 µM |
| CCOC(=O)COc1cc(-c2nn(C)c(OC(F)F)c2Cl)c(F)cc1Cl [Pyraflufen-ethyl] | 25 µM |
| O=C(O)c1cc(Oc2ccc(C(F)(F)F)cc2Cl)ccc1[N+](=O)[O-] [Acifluorfen] | 25 µM |
| CC(C)Oc1cc(-n2nc(C(C)(C)C)oc2=O)c(Cl)cc1Cl [Oxadiazon] | 25 µM |
